Data taken from patent US11420962B2, “Indene derivatives useful in treating pain and inflammation” (TARO PHARMACEUTICALS INC., priority 2018, dated 2022).

Legend:
Mice (male, C57Bl/6) = experiment: Formalin pain assay in mice; assay type: in vivo
Experimental: Mice (male, C57BL/6) were placed singly in a Perspex chamber for approximately 30 min on three successive days to acclimate and thereby reduce stress-induced behaviors. On the fourth day, the experimental animals received a 25 μl injection of 2.5% formalin beneath the left plantar skin using a 29-gauge syringe. […] The total time spent on flinches/licking/biting of the hind paw was recorded by visual observation for every 5 min period/interval for total observation duration of 60 min in two phases, the early phase (0-5 min) and the late phase (15-40 min). Observers were blinded to the treatment group allocation.
For test compounds, the % protection from 0-60 min was used to assess activity. Scoring for the test compounds was as follows: “A” represents a % protection of 81 to 100%, “B” represents a % protection of 61 to 80%, “C” represents a % protection of 31 to 60% and “D” represents a % protection of 0 to 30%.

Rat DRG = experiment: Rat dorsal root ganglion excitability response (EFS, Ca2+ transients); assay type: cell-based; conditions: Rattus norvegicus; Table 3; electrical field stimulation, Ca5 indicator; read-out: Scoring (EC50, Rat DRG excitability)
Outline: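 Adult rat DRG cells cultured for 2 days were loaded with the Ca5 dye 1 h before electrical field stimulation under four protocols. Compounds were tested at six concentrations (typically top 30 μM, 1:3 steps, duplicate), added either 24 h before or directly before EFS. The read-out was the per-well peak/baseline fluorescence ratio change, with imaging used to check for toxicity.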

[1] = Metabolism by human liver microsomes; assay type: in vitro ADME; conditions: Table 8; 10 µM, in the presence of NADPH, 1 mg/mL protein
Outline: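 Compound at 10 μM preincubated 10 min at 37 °C with human liver microsomes (1 mg/mL protein), 100 mM Tris HCl pH 7.5; started with 1 mM NADPH, run 60 min. Percent remaining at 60 min versus 0-time by LC-MS/MS analyte/internal-standard ratio, scored in bands.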

C=C1CC[C@H]2[C@H](CN)[C@@H]([C@@]3(C)Cc4cn[nH]c4C[C@@H]3CO)CC[C@]12C [Ia-1, ((5R,6S)-5-((3aS,4R,5S,7aS)-4-(aminomethyl)-7a-methyl-1-methyleneoctahydro-1H-inden-5-yl)-5-methyl-4,5,6,7-tetrahydro-1H-indazol-6-yl)methanol]
% inhibition, early phase (neurogenic pain) (Mice (male, C57Bl/6); 30 mg/kg dose, 0-5 min): 59% | % inhibition, late phase (inflammatory pain) (Mice (male, C57Bl/6); 30 mg/kg dose, 15-40 min): 52% | Scoring (% protection from 0-60 min) (Mice (male, C57Bl/6); Table 7, formalin 2.5%, left plantar): B (a % protection of 61 to 80%) | EC50 (Rat DRG): 6 to 15 µM | Scoring (% of drug remaining after 60 minutes, PDR60) [1]: B (a PDR^60 of 61 to 80%)
